Columns and labels:
Experiment in all cases: AUC of viability dose-response curve (% viability x log10 dose units); higher = less sensitive
Settings in all cases: 48 h
NOMO1 = test system: NOMO1
Method in brief: (§1)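 Viability of medium-adapted leukemia cells was measured by CellTiter-Glo One luminescence after 48 h at 37°C with library compounds in DMSO. Doses were 11 threefold steps from 47 μM to 0.79 nM, in 1536-well plates at 500 or 1000 cells/well. Signals were normalised per plate to DMSO and cell-free wells and fitted with a four-parameter log-logistic model on log10 dose. Area under the curve was integrated by trapezoidal rule, with curves exceeding full viability scaled and failed quality-control curves removed.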

P12-Ichikawa = test system: P12-Ichikawa
Method in brief: as §1

SEM cells = test system: SEM cells
Method in brief: as §1

[1] = RPMI 5 mM glucose + 10% dialyzed FBS

SMILES	AUC of viability dose-response curve (NOMO1; HPLM + 10% dialyzed FBS)	AUC of viability dose-response curve (NOMO1; RPMI 5 mM glucose + 10% FBS)	AUC of viability dose-response curve (NOMO1; [1])	AUC of viability dose-response curve (P12-Ichikawa; HPLM + 10% dialyzed FBS)	AUC of viability dose-response curve (P12-Ichikawa; RPMI 5 mM glucose + 10% FBS)	AUC of viability dose-response curve (P12-Ichikawa; [1])	AUC of viability dose-response curve (SEM cells; HPLM + 10% dialyzed FBS)	AUC of viability dose-response curve (SEM cells; RPMI 5 mM glucose + 10% FBS)	AUC of viability dose-response curve (SEM cells; [1])
Cc1c(C(=O)Nc2cccc(C(F)(F)F)c2)cc(-c2ccccc2)n1CCCN1CCOCC1	458	446	460	438	449	454	454	458	446
CC(C)C[C@H](NC(=O)[C@H](Cc1ccccc1)NC(=O)c1cnccn1)B(O)O	182	171	181	173	173	171	138	147	129
Cc1ccc(-c2ncn(-c3ccc(Nc4nccc(-c5cccc(N6CCOCC6)c5)n4)cc3)n2)cn1	–	–	–	259	244	235	229	226	217
O=c1[nH]cnc2c1ncn2[C@H]1CC[C@@H](CO)O1	447	420	431	468	463	444	460	409	409
C=CCn1c(=O)c2cnc(Nc3ccc(N4CCN(C)CC4)cc3)nc2n1-c1cccc(C(C)(C)O)n1	310	338	316	336	362	354	299	301	270
C[C@@H]1CC[C@@]2(OC1)OC1CC3C4CC=C5CC(O)CCC5(C)C4CCC3(C)C1[C@@H]2C (stereo partly drawn)	428	402	407	419	453	444	444	394	415
CC1(C)CC(O)CC(C)(C)N1[O]	452	472	472	464	459	459	–	–	–
CCCCCCCCc1ccc(CCC(N)(CO)CO)cc1	353	433	401	432	407	429	441	452	454
N#CC(=C(/N)Sc1ccccc1N)/C(C#N)=C(\N)Sc1ccccc1N	436	473	444	474	469	472	452	444	410
Cc1cn(CCN2CCN(c3ccccc3-c3cc(C#N)cc(C(=O)NCCCN4CCCC4)c3)CC2)c2ccccc12	406	424	421	402	409	409	407	401	424
Oc1cc(O)cc(/C=C/c2ccc(O)c(O)c2)c1	442	416	431	449	452	444	413	430	390
COc1cc(-c2nn(C3CCC(N4CCN(C(C)=O)CC4)CC3)c3ncnc(N)c23)ccc1NC(=O)c1cc2ccccc2n1C (stereo not drawn)	443	450	460	449	465	460	472	468	468
Cc1cc(O)c2c(c1)C(=O)c1cc(O)cc(O)c1C2=O	462	437	454	467	468	449	457	470	469
O=C(CCc1ccc(O)cc1)c1c(O)cc(O)cc1O[C@@H]1O[C@H](CO)[C@@H](O)[C@H](O)[C@H]1O	–	–	–	428	405	408	454	426	412
CO[C@@H]1C(N(C)C(=O)c2ccccc2)C[C@H]2O[C@]1(C)n1c3ccccc3c3c4c(c5c6ccccc6n2c5c31)C(=O)NC4=O (stereo partly drawn)	–	–	–	401	372	369	324	289	327
COc1cc([C@@H]2c3cc4c(cc3[C@@H](O[C@@H]3O[C@@H]5CO[C@@H](c6cccs6)O[C@H]5[C@H](O)[C@H]3O)[C@H]3COC(=O)[C@H]23)OCO4)cc(OC)c1O	–	–	–	–	–	–	329	319	284
COc1cc(N[S+](=O)([O-])c2ccc(N)cc2)nc(OC)n1	431	476	458	462	470	466	–	–	–
CCN(CC)CCN1C(=O)\C(=N/C2=CC=CC=C12)CC3=CC=C(OC)C=C3	472	474	468	470	465	460	–	–	–

Reference: the supplement of paper PMC11451515
